From article PMC8728392, “Synthesis, Anticancer Assessment, and Molecular Docking of Novel Chalcone-Thienopyrimidine Derivatives in HepG2 and MCF-7 Cell Lines” (Oxidative Medicine and Cellular Longevity, 2021)

Tests used:
Type in all cases: cell-based, human
[1] = system: GR activity in MCF-7 cells; test: Glutathione reductase (GR) activity; details: IC50, in comparison to untreated cells
Procedure: The activity of GR was determined by the decrease in absorbance caused by the oxidation of NADPH during the reduction of oxidized GSH [41].
The activity of GR was determined by the decrease in absorbance caused by the oxidation of NADPH during the reduction of oxidized GSH (Malik et al., 2019). HepG2 or MCF-7cells were pre-treated with newly synthesized chalcone-thienopyrimidines derivatives for 24 hours, harvested and the pellet was re-suspended in twice the volume of protein extraction buffer (PEB). Cells were then vortexed vigorously for 2 min, repeating the cycle three times. Homogenate was then centrifuged at 10,000 rpm for 10 min. The supernatant was collected and was used to quantitate antioxidant enzyme GR using standard protocols. All determinations were made in at least five replicates and the values given are the average of these replicates.

[2] = system: Bax, Bcl-2, caspase-3, and caspase-9 in MCF-7; test: RT-PCR relative expression of apoptosis markers; details: IC50, 8-hour incubation; for expression levels of Bax / expression levels of Bcl-2 / expression levels of caspase-3 / expression levels of caspase-9: vs control
Description: (§1) We determined the effect of IC50 concentration of newly synthesized thienopyrimidine derivatives (3a-e and 3g and 3b and 3g) on the relative expression levels of some markers of apoptosis in HepG2 and MCF-7 cell lines, respectively. These included the antiapoptotic marker Bcl-2 as well as the apoptotic markers Bax, caspase-3, and caspase-9 [33]. BIORAD iScript™ One-Step RT-PCR kit with SYBR® Green was used to assess the relative levels of expression of apoptosis markers. The measurement was carried out according to the technique of reverse transcription polymerase chain reaction (RT-PCR) using the Rotor-Gene RT-PCR system, and the method of the used kit was done based on the manufacturer's instructions. The procedure of this assay included the following:
(§2) Based on the manufacturer's instructions, the Qiagen RNeasy Extraction Kit (Qiagen Ltd., UK) was used to isolate mRNA from approximately 1 × 10^7 cells according to the cell line.
(§3) Mix all the following reagents to get the total volume (50 μl): 2X SYBR® Green RTPCR reaction mixture (25 μl), forward primer […] (1.5 μl), reverse primer […] (1.5 μl), nuclease-free water (11 μl), RNA template (1 pg-100 ng total RNA) (10 μl), and iScript reverse transcriptase (1 μl) for One-Step RT-PCR.
(§4) The thermal cycler (Rotor-Gene) program used was as follows: one cycle for reverse transcription at 50°C for 10 minutes and one cycle for RT inactivation/Hot-start activation at 95°C for 5 minutes and then 45 cycles for qPCR (10 s at 95°C, 30 seconds for annealing at 55°C, and 30 seconds for extension at 72°C), and this is followed by the final extension (one cycle) at 72°C for 10 minutes.

MCF-7 cell line [3] = test: Cell cycle analysis (PI, flow cytometry); details: compared with control cells
Procedure: (§5) Cell cycle analysis was performed to decide if the newly synthesized thienopyrimidine derivatives arrested the cell cycle and at what phase of the cell cycle, the HepG2 and MCF-7 cell lines were arrested. The experiments were performed as previously described by Tolba et al.. HepG2 and MCF-7 cell lines were seeded and incubated with the tested compounds in 6-well plates. After incubation overnight, the cells were washed twice with ice-cold phosphate-buffered saline (PBS), detached by EDTA-trypsinization from the plates, harvested by centrifugation, fixed in ice-cold 70% (v/v) ethanol, and washed with phosphate-buffered saline (PBS, pH 7.2 ± 0.2). The cells were resuspended with 0.1 mg/ml RNase, stained with […] propidium iodide (PI), and analyzed by flow cytometry using a FACSCalibur flow cytometer (BD Biosciences, San Jose, CA). CellQuest software (Becton Dickinson) was used to determine the cell cycle distributions after incubation with 5-FU or tested compounds. Exposure of HepG2 and MCF-7 cell lines to these compounds could interfere with the normal cell cycle distribution.

HepG2 cell line = test: Cell cycle analysis (PI, flow cytometry)
Procedure: as §5

MCF-7 cell line [4] = test: Annexin V-FITC/PI apoptotic assay
Description: Annexin V-fluorescein isothiocyanate (FITC) and counterstaining with propidium iodide (PI) using the Annexin V-FITC/PI apoptosis detection kit (BD Biosciences, San Diego, CA) were employed to distinguish early and late apoptotic cells according to the manufacturer's directions. Annexin V conjugated with fluorescein isothiocyanate was used to quantify the loss of phosphatidylserine asymmetry in cell membranes involved in apoptosis, and propidium iodide can distinguish between early apoptosis, late apoptotic, and necrotic cells. Analyses were achieved by using a FACSCalibur flow cytometer (BD Biosciences, San Jose, CA).
Cells were gently washed twice with PBS accompanied by tryptic digestion (0.25% trypsin/EDTA) and washed yet again with PBS. All the cells including the floating and adherent ones were harvested, pooled and stained with […] in 1× binding buffer for 15 min at room temperature in the dark. Analyses were achieved by FACS Calibur flow cytometer (BD Biosciences, San Jose, CA).

[5] = system: Bax, Bcl-2, caspase-3, and caspase-9 in HepG2; test: RT-PCR relative expression of apoptosis markers; details: IC50, 8-hour incubation, vs control
Description: as §1, §2, §3, §4

Row | Structure (SMILES) | GR activity [1] | Bax/Bcl-2 ratios [2] | expression levels of Bax [2] | expression levels of Bcl-2 [2] | expression levels of caspase-3 [2] | expression levels of caspase-9 [2] | G1 and pre-G1 arrest (MCF-7 cell line [3]) | cell population in pre-G1 phases compared with control cells (HepG2 cell line) | total, early, and late apoptosis as well as necrosis relative to the control cells (MCF-7 cell line [4]) | expression levels of Bcl-2 [5] | cell population in G2/M compared with control cells (HepG2 cell line)
1 | CCOC(=O)Cn1c(SCC(=O)Nc2ccc(C(=O)/C=C\c3cc(OC)c(OC)c(OC)c3)cc2)nc2sc3c(c2c1=O)CCN(C(=O)OCC)C3 [Compound 3b, Ethyl (Z)-3-(2-Ethoxy-2-oxoethyl)-4-oxo-2-((2-oxo-2-((4-(3-(3,4,5 trimethoxyphenyl)acryloyl)phenyl)amino)ethyl)thio)-3,5,6,8 tetra-hydropyrido[4′,3′:4,5]thieno[2,3-d]pyrimidine-7(4H)-carboxylate] | significant decline | strikingly elevated | significant elevation | remarkable decrease | significant elevation | significant elevation | significantly (P < 0.05) induced G1 and pre-G1 arrest | significant increase | significant increase | – | –
2 | CCOC(=O)Cn1c(SCC(=O)Nc2ccc(C(=O)/C=C\c3cccc([N+](=O)[O-])c3)cc2)nc2sc3c(c2c1=O)CC(C)(C)NC3(C)C [Compound 3g, Ethyl (Z)-2-(6,6,8,8-Tetramethyl-2-((2-((4-(3-(3-nitrophenyl)acryloyl)-phenyl)amino)-2-oxoethyl)thio)-4-oxo-5,6,7,8-tetrahydropyrido[4′,3′:4,5]thieno[2,3-d]pyrimidin-3(4H)-yl)acetate] | significant decline | strikingly elevated | significant elevation | remarkable decrease | significant elevation | significant elevation | significantly (P < 0.05) induced G1 and pre-G1 arrest | significant increase | – | noticeably decreased | substantial increase
